Experimental data as given in US9040523B2, “Antifungal 5,6-dihydro-4H-pyrrolo[1,2-α][1,4]-benzodiazepines and 6H-pyrrolo[1,2-α][1,4]benzodiazepines substituted with benzene derivatives” (JANSSEN PHARMACEUTICA NV, priority 2010, dated 2015).

Experiments:
Assay type in all cases: cell-based
[1] = system: Sporothrix schenkii B62482; experiment: Antifungal activity in vitro (resazurin susceptibility screen), Inf. A; settings: 27 °C, 4 days, resa time 24 hours, highest in-test concentration 64 μM; for Inf. A pIC50: Sporothrix schenkii B62482
Procedure: (§1) The standard susceptibility screen was performed in 96-well plates (U-bottom, Greiner Bio-One). […] These serial dilutions (10 n1) were then spotted onto test-plates that could be stored in the dark at 4° C. for a maximum period of 2 weeks. […] The different fungal species/isolates (Table 3a) were cryopreserved and 1/1000 diluted in medium just prior to use. A standard inoculum of 200 μl containing 10^3 colony-forming unit (cfu) was then added to each well. A positive control (100% growth=fungal culture without antifungal) and a negative control (0% growth ═RPMI-MOPS medium) were included on each plate. […] [table]

[2] = system: Microsporum canis B68128; experiment: Antifungal activity in vitro (resazurin susceptibility screen), Inf. B; settings: 27 °C, 9 days, resa time 24 hours; for Inf. B pIC50: Microsporum canis B68128
Procedure: (§2) The standard susceptibility screen was performed in 96-well plates (U-bottom, Greiner Bio-One). […] These serial dilutions (10 n1) were then spotted onto test-plates that could be stored in the dark at 4° C. for a maximum period of 2 weeks. […] A standard inoculum of 200 μl containing 10^3 colony-forming unit (cfu) was then added to each well. A positive control (100% growth=fungal culture without antifungal) and a negative control (0% growth ═RPMI-MOPS medium) were included on each plate.

[3] = system: Trichophyton rubrum B68183; experiment: Antifungal activity in vitro (resazurin susceptibility screen), Inf. C; settings: Trichophyton rubrum B68183, 27 °C, 7 days, resa time 24 hours
Procedure: as §1

[4] = system: Candida parapsilosis B66126; experiment: Antifungal activity in vitro (resazurin susceptibility screen), Inf. D; settings: Candida parapsilosis B66126, 37 °C, 24 hours, resa time 4 hours
Procedure: as §2

[5] = system: Aspergillus fumigatus B42928; experiment: Antifungal activity in vitro (resazurin susceptibility screen), Inf. E; settings: Aspergillus fumigatus B42928, 27 °C, 48 hours, resa time 17 hours
Procedure: as §1

[6] = system: Cryptococcus neoformans B66663; experiment: Antifungal activity in vitro (resazurin susceptibility screen), Inf. F; settings: 37 °C, 24 hours, resa time 4 hours; for Inf. F pIC50: Cryptococcus neoformans B66663
Procedure: as §1

[7] = system: Trichophyton mentagrophytes B70554; experiment: Antifungal activity in vitro (resazurin susceptibility screen), Inf. G; settings: Trichophyton mentagrophytes B70554; 27 °C, 7 days, resa time 24 hours
Procedure: as §2

| SMILES | Inf. A pIC50 [1] | Inf. B pIC50 [2] | Inf. C pIC50 [3] | Inf. D pIC50 [4] | Inf. E pIC50 [5] | Inf. F pIC50 [6] | Inf. G pIC50 [7] | IC50 ([1]; Sporothrix, B62482, Sporothrix schenkii B62482, read-out: Inf. A pIC50 (converted)) [µM] | IC50 ([2]; Microsporum canis, B68128, Microsporum canis B68128, read-out: Inf. B pIC50 (converted)) [µM] | IC50 ([3]; read-out: Inf. C pIC50 (converted)) [µM] | IC50 ([4]; Lodderomyces parapsilosis, read-out: Inf. D pIC50 (converted)) [µM] | IC50 ([5]; read-out: Inf. E pIC50 (converted)) [µM] | IC50 ([6]; Cryptococcus neoformans, B66663, Cryptococcus neoformans B66663, read-out: Inf. F pIC50 (converted)) [µM] |
| --- | --- | --- | --- | --- | --- | --- | --- | --- | --- | --- | --- | --- | --- |
| CC(O)c1ccc(C2NCc3c(ccc(Cl)c3Cl)-n3cccc32)cc1.Cl (stereo not drawn) [Compound 2, 4-(7,8-dichloro-5,6-dihydro-4H-pyrrolo[1,2-a][1,4]benzodiazepin-4-yl)-alpha-methyl-benzenemethanol .HCl] | <4.2 | 4.7 | <4.2 | <4.2 | <4.2 | <4.2 | <4.2 |  |  |  |  |  |  |
| CC(O)c1ccc(C2NCc3cc(Cl)cc(Cl)c3-n3cccc32)cc1.Cl (stereo not drawn) [Compound 3, 4-(8,10-dichloro-5,6-dihydro-4H-pyrrolo[1,2-a][1,4]benzodiazepin-4-yl)-alpha-methyl-benzenemethanol .HCl] | <4.2 | 5.0 | 6 | <4.2 | <4.2 | 4.7 | 4.4 |  |  |  |  |  |  |
| CC(=O)c1cccc(C2NCc3c(Cl)cccc3-n3cccc32)c1 (stereo not shown) [Compound 4, 1-[3-(7-chloro-5,6-dihydro-4H-pyrrolo[1,2-a][1,4]benzodiazepin-4-yl)phenyl]-ethanone] |  |  |  |  |  |  |  | > 63.1 | 10 | 5.01 | > 63.1 | > 63.1 | > 63.1 |
| Br.CC(=O)c1ccc(C2NCc3c(Cl)cccc3-n3cccc32)cc1 (stereo not shown) [Compound 6, 1-[4-(7-chloro-5,6-dihydro-4H-pyrrolo[1,2-a][1,4]benzodiazepin-4-yl)phenyl]-ethanone .HBr] | 4.7 | 6.2 | 6.4 | <4.2 | 4.5 | <4.2 |  |  |  |  |  |  |  |
| CC(=O)c1cc(C2NCc3c(Cl)cccc3-n3cccc32)ccc1F.Cl (stereo not shown) [Compound 7, 1-[5-(7-chloro-5,6-dihydro-4H-pyrrolo[1,2-a][1,4]benzodiazepin-4-yl)-2-fluorophenyl]-ethanone .HCl] | <4.2 | 5.1 | 6.0 | <4.2 | <4.2 | <4.2 | 5.2 |  |  |  |  |  |  |
| CC(=O)c1ccc(C2NCc3c(ccc(Cl)c3Cl)-n3cccc32)cc1.Cl (stereo not shown) [Compound 9, 1-[4-(7,8-dichloro-5,6-dihydro-4H-pyrrolo[1,2-a][1,4]benzodiazepin-4-yl)phenyl]-ethanone .HCl] | 5.0 | 5.6 | 5.7 | <4.2 | <4.2 | 4.5 | 4.5 |  |  |  |  |  |  |
| CC(=O)c1cccc(C2NCc3c(Cl)cc(Cl)cc3-n3cccc32)c1.Cl (stereo not shown) [Compound 10, 1-[3-(7,9-dichloro-5,6-dihydro-4H-pyrrolo[1,2-a][1,4]benzodiazepin-4-yl)phenyl]-ethanone .HCl] | <4.2 | 5.3 | 5.7 | <4.2 | <4.2 | <4.2 | 5.2 |  |  |  |  |  |  |
| CC(=O)c1ccc(C2NCc3c(Cl)cc(Cl)cc3-n3cccc32)cc1.Cl (stereo not shown) [Compound 12, 1-[4-(7,9-dichloro-5,6-dihydro-4H-pyrrolo[1,2-a][1,4]benzodiazepin-4-yl)phenyl]-ethanone .HCl] | <4.2 | 4.9 | 5.7 | <4.2 | <4.2 | <4.2 | 5.1 |  |  |  |  |  |  |
| CS(=O)(=O)c1cccc(C2=NCc3c(Cl)cccc3-n3cccc32)c1 [Compound 27] | <4.2 | 5.2 | 5.1 | <4.2 | <4.2 | 4.2 | 5.1 |  |  |  |  |  |  |
